Laboratory results reported in article PMC5716991, “The anthelmintic praziquantel is a human serotoninergic G-protein-coupled receptor ligand” (Nature Communications, 2017).

Biological target: T1, 5-HT2B receptor (Homo sapiens, UniProt P41595)
T1 construct: gene HTR2B
Assay: [3H]-LSD radioligand displacement at […] (PDSP primary screen); partial agonist in Ca2+ flux
Assay type: binding

T1 sequence (P41595 whole entry): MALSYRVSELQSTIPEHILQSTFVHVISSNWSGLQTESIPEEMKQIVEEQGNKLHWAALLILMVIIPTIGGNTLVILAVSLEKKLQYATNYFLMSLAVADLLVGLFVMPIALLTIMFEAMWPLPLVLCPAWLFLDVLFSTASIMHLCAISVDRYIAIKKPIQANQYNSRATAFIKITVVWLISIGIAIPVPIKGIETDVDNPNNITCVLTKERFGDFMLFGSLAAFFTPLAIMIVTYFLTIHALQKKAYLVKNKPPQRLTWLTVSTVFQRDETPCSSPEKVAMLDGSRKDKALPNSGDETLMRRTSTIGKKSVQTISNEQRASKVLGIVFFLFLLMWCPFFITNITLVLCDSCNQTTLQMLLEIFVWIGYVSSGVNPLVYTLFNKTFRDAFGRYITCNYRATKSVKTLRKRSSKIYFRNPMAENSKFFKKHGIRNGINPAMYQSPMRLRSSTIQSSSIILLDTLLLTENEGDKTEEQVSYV

O=C(C1CCCCC1)N1CC(=O)N2CCc3ccccc3[C@@H]2C1 [(R)-PZQ]
[3H]-LSD radioligand displacement at 5 μM (PDSP primary screen); partial agonist: the human 5-HT2B receptor (5-HT2BR)—where inhibition seen with (±)-PZQ was attributable solely to (R)-PZQ
